ChEMBL document CHEMBL3044869, “Cross-resistance patterns and fitness in fufenozide-resistant diamondback moth, Plutella xylostella (Lepidoptera: Plutellidae)” (2012)
Converted amounts (≈) assume the structure as drawn.

Key:
Type in all cases: functional
Plutella xylostella [1] = test: Resistance ratio, ratio of LC50 for third-instar larvae of fufenozide-resistant Plutella xylostella (diamondback moth) to LC50 for third-instar larvae of fufenozide-susceptible Plutella xylostella
Plutella xylostella [2] = test: Insecticidal activity against third-instar larvae of fufenozide-susceptible Plutella xylostella (diamondback moth) assessed as mortality by leaf-dip bioassay method
Plutella xylostella [3] = test: Insecticidal activity against third-instar larvae of fufenozide-resistant Plutella xylostella (diamondback moth) assessed as mortality by leaf-dip bioassay method

With `CCOP(=S)(OCC)Oc1nc(Cl)c(Cl)cc1Cl` [CHLORPYRIFOS] the RatioLC50 (Plutella xylostella [1]) was 1.75, the LC50 (Plutella xylostella [2]) was 122 µg/mL (≈ 349 µM) and the LC50 (Plutella xylostella [3]) was 215 µg/mL (≈ 613 µM).
`CCOP(=S)(OCC)O/N=C(\C#N)c1ccccc1` [PHOXIM] was tested, and the RatioLC50 (Plutella xylostella [1]) was 1.58, the LC50 (Plutella xylostella [2]) was 102 µg/mL (≈ 341 µM) and the LC50 (Plutella xylostella [3]) was 161 µg/mL (≈ 540 µM).
`CC(C)(C)N(NC(=O)c1ccccc1)C(=O)c1ccccc1` [RH-5849] showed a RatioLC50 (Plutella xylostella [1]) of 10.8, an LC50 (Plutella xylostella [2]) of 10.6 µg/mL (≈ 35.8 µM) and an LC50 (Plutella xylostella [3]) of 114 µg/mL (≈ 385 µM).
For `CNC(=O)ON=C(C)SC` [METHOMYL], the RatioLC50 (Plutella xylostella [1]) was 1.92, the LC50 (Plutella xylostella [2]) was 67.4 µg/mL (≈ 416 µM) and the LC50 (Plutella xylostella [3]) was 130 µg/mL (≈ 798 µM).
`O=C(NC(=O)c1c(F)cccc1F)Nc1ccc(Cl)cc1` [DIFLUBENZURON] showed a RatioLC50 (Plutella xylostella [1]) of 17.2, an LC50 (Plutella xylostella [2]) of 19.9 µg/mL (≈ 64.1 µM) and an LC50 (Plutella xylostella [3]) of 342 µg/mL (≈ 1100 µM).
In the case of `CCOCn1c(-c2ccc(Cl)cc2)c(C#N)c(Br)c1C(F)(F)F` [CHLORFENAPYR], the RatioLC50 (Plutella xylostella [1]) was 1.11, the LC50 (Plutella xylostella [2]) was 2.96 µg/mL (≈ 7.26 µM) and the LC50 (Plutella xylostella [3]) was 3.3 µg/mL (≈ 8.1 µM).
With `O=C(NC(=O)c1c(F)cccc1F)Nc1cc(Cl)c(OC(F)(F)C(F)F)c(Cl)c1` [HEXAFLUMURON] the RatioLC50 (Plutella xylostella [1]) was 28.7, the LC50 (Plutella xylostella [2]) was 9.56 µg/mL (≈ 20.7 µM) and the LC50 (Plutella xylostella [3]) was 274 µg/mL (≈ 594 µM).
Compound `COc1cccc(C(=O)NN(C(=O)c2cc(C)cc(C)c2)C(C)(C)C)c1C` [METHOXYFENOZIDE] has a RatioLC50 (Plutella xylostella [1]) of 37.6, an LC50 (Plutella xylostella [2]) of 7.33 µg/mL (≈ 19.9 µM) and an LC50 (Plutella xylostella [3]) of 276 µg/mL (≈ 748 µM).
`CC[C@H]1CCC[C@H](O[C@H]2CC[C@H](N(C)C)[C@@H](C)O2)[C@@H](C)C(=O)C2=C[C@@H]3[C@@H](C=C(C)[C@@H]4C[C@@H](O[C@@H]5O[C@@H](C)[C@H](OC)[C@@H](OC)[C@H]5OC)C[C@@H]34)[C@@H]2CC(=O)O1.CC[C@H]1CCC[C@H](O[C@H]2CC[C@H](N(C)C)[C@@H](C)O2)[C@@H](C)C(=O)C2=C[C@@H]3[C@@H](C=C[C@@H]4C[C@@H](O[C@@H]5O[C@@H](C)[C@H](OC)[C@@H](OC)[C@H]5OC)C[C@@H]34)[C@@H]2CC(=O)O1` gave a RatioLC50 (Plutella xylostella [1]) of 2.34, an LC50 (Plutella xylostella [2]) of 0.188 µg/mL and an LC50 (Plutella xylostella [3]) of 0.439 µg/mL.
Work on `CCc1ccc(C(=O)NN(C(=O)c2cc(C)cc(C)c2)C(C)(C)C)cc1` [TEBUFENOZIDE] yielded a RatioLC50 (Plutella xylostella [1]) of 27.9, an LC50 (Plutella xylostella [2]) of 12.6 µg/mL (≈ 35.7 µM) and an LC50 (Plutella xylostella [3]) of 353 µg/mL (≈ 1000 µM).
Work on `CC1(C)[C@H](C=C(Cl)Cl)[C@H]1C(=O)O[C@@H](C#N)c1cccc(Oc2ccccc2)c1` [BETA-CYPERMETHRIN] yielded a RatioLC50 (Plutella xylostella [1]) of 1.35, an LC50 (Plutella xylostella [2]) of 35.2 µg/mL (≈ 84.6 µM) and an LC50 (Plutella xylostella [3]) of 47.5 µg/mL (≈ 114 µM).
For `Cc1cc(C)cc(C(=O)N(NC(=O)c2ccc3c(c2C)OC(C)C3)C(C)(C)C)c1` (centres undefined) [FUXIAN], the RatioLC50 (Plutella xylostella [1]) was 302.8, the LC50 (Plutella xylostella [2]) was 2.23 µg/mL (≈ 5.65 µM) and the LC50 (Plutella xylostella [3]) was 676 µg/mL (≈ 1710 µM).
For `CC[C@H](C)[C@H]1O[C@]2(C=C[C@@H]1C)C[C@@H]1C[C@@H](C/C=C(\C)[C@@H](O[C@H]3C[C@H](OC)[C@@H](O[C@H]4C[C@H](OC)[C@@H](O)[C@H](C)O4)[C@H](C)O3)[C@@H](C)/C=C/C=C3\CO[C@@H]4[C@H](O)C(C)=C[C@@H](C(=O)O1)[C@]34O)O2.CO[C@H]1C[C@H](O[C@H]2[C@H](C)O[C@@H](O[C@@H]3/C(C)=C/C[C@@H]4C[C@@H](C[C@]5(C=C[C@H](C)[C@@H](C(C)C)O5)O4)OC(=O)[C@@H]4C=C(C)[C@@H](O)[C@H]5OC/C(=C\C=C\[C@@H]3C)[C@]54O)C[C@@H]2OC)O[C@@H](C)[C@@H]1O` [ABAMECTIN], the RatioLC50 (Plutella xylostella [1]) was 7.02, the LC50 (Plutella xylostella [2]) was 1.12 µg/mL and the LC50 (Plutella xylostella [3]) was 7.87 µg/mL.
